SMILES strings stand for the structures.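 Exposure lasted 48 hours, with cells grown in 96-well plates and compounds tested at five concentrations. GI50 is the concentration that inhibits growth by half.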 The source made the active and inactive calls. No stated cut-off is given here; in the data, active = GI50 up to about 1.1 µM and inactive = higher.

What all share (assay): NCI tumour cell line growth inhibition, 48 h
For assay [1], the system named is UACC-62.
Assay [2] concerns SF-539.
Assay [3] has as its system SK-MEL-28.
Assay [4] deals with OVCAR-8.
The test system of assay [5] is U-251.
Assay [6] relates to SK-OV-3.
Assay [7] relates to EKVX.
For assay [8], the system named is UO-31.
Assay [9] has as its system SN12C.
Assay [10] concerns SNB-75.
In assay [11] the test system is NCI-H226.
Assay [12] concerns HOP-92.
In assay [13] the test system is HT-29.
For assay [14], the system named is NCI-H522.
The test system of assay [15] is OVCAR-5.
Assay [16] deals with DU-145.
For assay [17], the system named is HL-60.
Assay [18] concerns COLO 205.
For assay [19], the system named is 786-0.
Assay [20] relates to M14.

Take `O=C(Nc1nc2c(=O)[nH]cnc2s1)c1ccccc1`: the GI50 in [1], in assay [2], in assay [3], in assay [4], in assay [5] and in assay [6] was > 100 µM (inactive) each time. Moreover, the GI50 in assay [7] is > 100 µM (inactive); in assay [8], 97.9 µM (inactive); in assay [9], > 100 µM (inactive); in assay [10], 44.2 µM (inactive); in [11], > 100 µM (inactive); in assay [12], 49.1 µM (inactive). In addition, the GI50 in assay [13] is 50.4 µM (inactive); in assay [14] it was > 100 µM (inactive); in assay [15], > 100 µM (inactive); in assay [16], 73.1 µM (inactive); in assay [17] it was 53.8 µM (inactive); in [18] it was > 100 µM (inactive). Moreover, the GI50 in assay [19] was > 100 µM (inactive).

For `O=C1OC(c2ccccc2Br)=N/C1=C/c1ccccc1`, the GI50 is 37.1 µM (inactive) in [1]; 18.5 µM (inactive) in assay [2]; 41.8 µM (inactive) in assay [3]; 21.6 µM (inactive) in [4]; 26.6 µM (inactive) in assay [5]; 63.7 µM (inactive) in [6]. For the same compound, the GI50 in [7] is > 100 µM (inactive); in [8], 45.9 µM (inactive); in assay [10] it was 53.5 µM (inactive); in assay [11], 18.8 µM (inactive); in assay [12], > 10 µM (inactive); in assay [13] it was 32.1 µM (inactive). The GI50 in assay [14] is 26 µM (inactive); in [15] it was 40.2 µM (inactive); in assay [16], > 100 µM (inactive); in assay [17], 39 µM (inactive); in assay [18], > 10 µM (inactive); in assay [20] it was 18.6 µM (inactive).

For the compound `COc1cc(/N=C\N(C)C)c2ncccc2c1`, the GI50 in assay [1] was 54.1 µM (inactive); in [2], 33.5 µM (inactive); in assay [3], > 100 µM (inactive); in assay [4], 51.8 µM (inactive); in assay [5], 79.3 µM (inactive); in [6], > 100 µM (inactive). Moreover, the GI50 in assay [7] is > 100 µM (inactive); in [8] it was 52 µM (inactive); in assay [9], > 100 µM (inactive); in assay [10], 52.8 µM (inactive); in [11] it was 49.4 µM (inactive); in assay [12], 32.1 µM (inactive). The GI50 was 69.8 µM (inactive) in assay [13]; 68.9 µM (inactive) in assay [14]; > 100 µM (inactive) in assay [15]; > 100 µM (inactive) in assay [16]; 26.8 µM (inactive) in assay [17]; > 100 µM (inactive) in assay [18]. For the same compound, the GI50 is 48.8 µM (inactive) in assay [20] and 81.3 µM (inactive) in assay [19].

For `O=c1cnn(C/C=C\CO)c(=O)[nH]1`, the GI50 in assay [2], in assay [3], in [4], in [5], in assay [7] and in assay [8] was > 100 µM (inactive) throughout. For the same compound, the GI50 in assay [9], in assay [10], in assay [11], in assay [12], in assay [14] and in assay [15] was > 100 µM (inactive) each time. In addition, the GI50 in assay [16], in assay [17], in [18] and in assay [20] was > 100 µM (inactive) throughout.

Take `C[C@]12CC[C@H](OC(=O)Cc3ccc(N(CCCl)CCCl)cc3)CC1=CC[C@@H]1[C@@H]2CC[C@]2(C)C(=O)CC[C@@H]12`: the GI50 in assay [2], in assay [3], in [4], in assay [5], in assay [7] and in [8] was > 100 µM (inactive) in each case. Moreover, the GI50 in assay [9], in assay [10], in [11], in assay [12], in assay [13] and in [14] was > 100 µM (inactive) in each case. For the same compound, the GI50 in [15], in assay [16], in assay [17], in assay [18] and in assay [20] was > 100 µM (inactive) throughout.

On to `CC1(C)N=C(N)N=C(N)N1c1ccc(CCCCc2ccc(S(=O)(=O)F)cc2Cl)c(Cl)c1`, for which the GI50 in assay [1] was 0.258 µM (active); in assay [2] it was 1.67 µM (inactive); in assay [3], 4.93 µM (inactive); in [4], 4.46 µM (inactive); in assay [5], 1.02 µM (active); in [6], 106 µM (inactive). Besides, the GI50 was 36.2 µM (inactive) in [7]; 36.1 µM (inactive) in assay [8]; 1.16 µM (inactive) in [9]; 9.23 µM (inactive) in assay [10]; 18.5 µM (inactive) in assay [11]; 4.18 µM (inactive) in assay [12]. The GI50 in [13] was 1.53 µM (inactive); in assay [14], 4.68 µM (inactive); in [15], 17.2 µM (inactive); in assay [16] it was 2.85 µM (inactive); in assay [17], 0.366 µM (active); in assay [18], 5.85 µM (inactive). Besides, the results for the GI50 in assay [20] and in assay [19] were 1.63 µM (inactive) and 0.186 µM (active), respectively.

As for `COc1cc(C=O)cc(/C=N/c2ccc(S(N)(=O)=O)cc2)c1O`, the GI50 in [1] was 23.8 µM (inactive); in assay [2] it was 2.93 µM (inactive); in assay [3] it was 4.36 µM (inactive); in assay [4], 6.21 µM (inactive); in assay [5], 5.36 µM (inactive); in assay [6], 2.9 µM (inactive). Besides, the GI50 in assay [7] is 56.2 µM (inactive); in [8], 5.51 µM (inactive); in [9] it was 6.65 µM (inactive); in assay [10], 23.9 µM (inactive); in assay [11], 4.3 µM (inactive); in assay [12], 2.86 µM (inactive). Moreover, the GI50 is 13.7 µM (inactive) in [13]; 21.2 µM (inactive) in [14]; 26.7 µM (inactive) in assay [15]; 40.1 µM (inactive) in assay [16]; 25.4 µM (inactive) in [17]; 16.6 µM (inactive) in assay [18]. Moreover, the GI50 in [20] was 3.92 µM (inactive).

Regarding `CN(C)/C=N/CC(O)c1ccccc1` (configuration not stated), the GI50 in assay [1] is > 100 µM (inactive); in [2] it was > 100 µM (inactive); in assay [3], > 100 µM (inactive); in assay [5] it was > 10 µM (inactive); in assay [6], > 100 µM (inactive); in [7] it was > 100 µM (inactive). In addition, the GI50 in assay [8], in assay [9], in [10], in [11], in [12] and in [13] was > 100 µM (inactive) throughout. Further, the GI50 in assay [14], in assay [15], in [16], in [17], in [18] and in [20] was > 100 µM (inactive) throughout. Besides, the GI50 in [19] was > 100 µM (inactive).

Turning to `CCCCCCOP(=O)(OCCCCCC)C(NC(=O)OCC)(C(F)(F)F)C(F)(F)F`, the GI50 in assay [1] is 41.6 µM (inactive); in assay [2] it was 36.3 µM (inactive); in assay [3] it was 41.9 µM (inactive); in [4], 36.1 µM (inactive); in [5], 36.8 µM (inactive); in assay [6] it was 29 µM (inactive). For the same compound, the GI50 is 64.6 µM (inactive) in assay [7]; 28.6 µM (inactive) in assay [8]; 34 µM (inactive) in assay [9]; 64.3 µM (inactive) in assay [10]; 24.9 µM (inactive) in assay [11]; 28.4 µM (inactive) in [12]. The GI50 in [13] was 51.4 µM (inactive); in [14], 28.1 µM (inactive); in assay [15], 43.8 µM (inactive); in assay [16], 93.1 µM (inactive); in assay [17], > 100 µM (inactive); in assay [18], 16.6 µM (inactive). The GI50 in [20] is 32 µM (inactive).

As for `CC(C)/C(=N\[N+](C)(C)C)c1ccccc1`, the GI50 in assay [1], in assay [2], in assay [3], in assay [4], in [5] and in assay [6] was > 100 µM (inactive) each time. Also, the GI50 is > 100 µM (inactive) in assay [7]; > 100 µM (inactive) in assay [8]; > 100 µM (inactive) in [9]; > 100 µM (inactive) in assay [10]; > 100 µM (inactive) in assay [11]; 69.3 µM (inactive) in assay [12]. Moreover, the GI50 in assay [13], in assay [14], in assay [15], in assay [16], in assay [17] and in assay [18] was > 100 µM (inactive) in each case. The GI50 in assay [20] and in [19] was > 100 µM (inactive) each time.

Source of the values: ChEMBL document CHEMBL1201862, “PubChem BioAssay data set” (2004).
